# Reference: US11236129B2, “IL-17A binding peptides and medical uses thereof” (Dompe' Farmaceutici S.P.A., priority 2018, dated 2022)
# Residues, ends and D or L forms follow the SMILES beside them.
# Biological target: IL-17RA/IL17RC dimerization induced by IL-17A (Homo sapiens, UniProt Q16552)
# Test: IL-17RA/IL17RC dimerization assay in response to IL-17A (PathHunter Cytokine Receptor Assay)
# Format: cell-based
# Conditions: IL-17A at EC80; read-out: IC50 in IL-17RA/IL7RC dimerization assay
# Outline: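 Receptor dimerization was read as chemiluminescence from complemented β-galactosidase after IL-17A at EC80 concentration for 6–16 h at 37 °C. Peptides were added 60 min before agonist, at 37 °C or room temperature, with 1% vehicle. Percent inhibition used the EC80-stimulated and vehicle wells as references.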
# Sequence of IL-17RA/IL17RC dimerization induced by IL-17A (Q16552 24-155): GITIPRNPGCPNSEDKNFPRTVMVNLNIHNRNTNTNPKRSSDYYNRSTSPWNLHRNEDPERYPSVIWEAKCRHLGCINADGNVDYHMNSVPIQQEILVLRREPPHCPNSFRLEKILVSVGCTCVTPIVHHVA
row,Structure (SMILES),IC50
1,CC[C@H](C)[C@H](NC(C)=O)C(=O)N[C@@H](Cc1c[nH]cn1)C(=O)N[C@H](C(=O)N[C@H](C(=O)N[C@H](C(=O)N[C@@H](CC(N)=O)C(=O)N[C@@H](C)C(=O)N[C@@H](CC(=O)O)C(=O)N[C@@H](CC(C)C)C(=O)N[C@@H](Cc1c[nH]c2ccccc12)C(=O)N[C@@H](CC(=O)O)C(=O)N[C@@H](Cc1c[nH]c2ccccc12)C(=O)N[C@H](C(=O)N[C@@H](CC(N)=O)C(=O)N[C@@H](CCCCN)C(N)=O)[C@@H](C)CC)[C@@H](C)CC)[C@@H](C)O)C(C)C [SEQ ID NO: 191] (Ac-IHVTINADLWDWINK-NH2),< 10 µM
2,CC[C@H](C)[C@H](NC(C)=O)C(=O)N[C@@H](Cc1c[nH]cn1)C(=O)N[C@H](C(=O)N[C@H](C(=O)N[C@H](C(=O)N1CCC[C@H]1C(=O)N[C@@H](C)C(=O)N[C@@H](CC(=O)O)C(=O)N[C@@H](CC(C)C)C(=O)N[C@@H](Cc1c[nH]c2ccccc12)C(=O)N[C@@H](CC(=O)O)C(=O)N[C@@H](Cc1ccc(O)cc1)C(=O)N[C@H](C(=O)N[C@@H](CC(N)=O)C(=O)N[C@@H](CCCCN)C(N)=O)[C@@H](C)CC)[C@@H](C)CC)[C@@H](C)O)C(C)C [SEQ ID NO: 211] (Ac-IHVTIPADLWDYINK-NH2),< 10 µM
3,CC(=O)N[C@H](C(=O)N[C@@H](Cc1c[nH]cn1)C(=O)N[C@H](C(=O)N[C@H](C(=O)N[C@H](C(=O)N1CCC[C@H]1C(=O)N[C@@H](CCC(N)=O)C(=O)N[C@@H](CCC(=O)O)C(=O)N[C@@H](CC(C)C)C(=O)N[C@@H](Cc1c[nH]c2ccccc12)C(=O)N[C@@H](CCC(=O)O)C(=O)N[C@@H](Cc1c[nH]c2ccccc12)C(=O)N[C@H](C(=O)N[C@@H](CCCNC(=N)N)C(=O)N[C@@H](CCCNC(=N)N)C(N)=O)C(C)C)C(C)C)[C@@H](C)O)C(C)C)C(C)C [SEQ ID NO: 224] (Ac-VHVTVPQELWEWVRR-NH2),< 10 µM
4,CC[C@H](C)[C@H](NC(C)=O)C(=O)N[C@@H](Cc1c[nH]cn1)C(=O)N[C@H](C(=O)N[C@H](C(=O)N[C@H](C(=O)N1CCC[C@H]1C(=O)N[C@@H](CC(C)C)C(=O)N[C@@H](CCC(=O)O)C(=O)N[C@H](C(=O)N[C@@H](Cc1ccccc1)C(=O)N[C@@H](CCC(=O)O)C(=O)N[C@@H](Cc1c[nH]c2ccccc12)C(=O)N[C@@H](C)C(=O)N[C@@H](CCC(N)=O)C(=O)N[C@@H](Cc1c[nH]cn1)C(N)=O)[C@@H](C)CC)[C@@H](C)CC)[C@@H](C)O)C(C)C [SEQ ID NO: 247] (Ac-IHVTIPLEIFEWAQH-NH2),< 10 µM
5,CC[C@H](C)[C@H](NC(C)=O)C(=O)N[C@@H](Cc1c[nH]cn1)C(=O)N[C@H](C(=O)N[C@H](C(=O)N[C@H](C(=O)N1CCC[C@H]1C(=O)N[C@@H](C)C(=O)N[C@@H](CC(=O)O)C(=O)N[C@@H](CC(C)C)C(=O)N[C@@H](Cc1c[nH]c2ccccc12)C(=O)N[C@@H](CC(=O)O)C(=O)N[C@@H](Cc1c[nH]c2ccccc12)C(=O)N[C@@H](Cc1ccccc1)C(=O)N[C@@H](CC(N)=O)C(=O)N[C@@H](CCCCN)C(N)=O)[C@@H](C)CC)[C@@H](C)O)C(C)C [SEQ ID NO: 218] (Ac-IHVTIPADLWDWFNK-NH2),< 10 µM
6,CC[C@H](C)[C@H](NC(C)=O)C(=O)N[C@@H](Cc1c[nH]cn1)C(=O)N[C@H](C(=O)N[C@H](C(=O)N[C@H](C(=O)N1CCC[C@H]1C(=O)N[C@@H](CCC(N)=O)C(=O)N[C@@H](CC(=O)O)C(=O)N[C@@H](CC(C)C)C(=O)N[C@@H](Cc1c[nH]c2ccccc12)C(=O)N[C@@H](CC(=O)O)C(=O)N[C@@H](Cc1c[nH]c2ccccc12)C(=O)N[C@H](C(=O)N[C@@H](CC(N)=O)C(=O)N[C@@H](CCCCN)C(N)=O)[C@@H](C)CC)[C@@H](C)CC)[C@@H](C)O)C(C)C [SEQ ID NO: 198] (Ac-IHVTIPQDLWDWINK-NH2),< 10 µM
7,CC[C@H](C)[C@H](NC(C)=O)C(=O)N[C@@H](Cc1c[nH]cn1)C(=O)N[C@H](C(=O)N[C@H](C(=O)N[C@H](C(=O)N1CCC[C@H]1C(=O)N[C@@H](C)C(=O)N[C@@H](CC(=O)O)C(=O)NCC(=O)N[C@@H](Cc1c[nH]c2ccccc12)C(=O)N[C@@H](CC(=O)O)C(=O)N[C@@H](Cc1c[nH]c2ccccc12)C(=O)N[C@H](C(=O)N[C@@H](CC(N)=O)C(=O)N[C@@H](CCCCN)C(N)=O)[C@@H](C)CC)[C@@H](C)CC)[C@@H](C)O)C(C)C [SEQ ID NO: 202] (Ac-IHVTIPADGWDWINK-NH2),< 10 µM
8,CC(=O)N[C@H](C(=O)N[C@@H](Cc1c[nH]cn1)C(=O)N[C@@H](Cc1ccccc1)C(=O)N[C@H](C(=O)N[C@H](C(=O)N1CCC[C@H]1C(=O)N[C@@H](CCC(N)=O)C(=O)N[C@@H](CCC(=O)O)C(=O)N[C@@H](CC(C)C)C(=O)N[C@@H](Cc1ccc(O)cc1)C(=O)N[C@@H](CCC(=O)O)C(=O)N[C@@H](Cc1c[nH]c2ccccc12)C(=O)N[C@H](C(=O)N[C@@H](CCCNC(=N)N)C(=O)N[C@@H](CCCNC(=N)N)C(N)=O)C(C)C)C(C)C)[C@@H](C)O)C(C)C [SEQ ID NO: 238] (Ac-VHFTVPQELYEWVRR-NH2),< 10 µM

# Second part, the compound after the results:
row,IC50,Structure (SMILES)
1,< 10 µM,CC[C@H](C)[C@H](NC(=O)[C@H](Cc1c[nH]c2ccccc12)NC(=O)[C@H](CC(=O)O)NC(=O)[C@H](Cc1c[nH]c2ccccc12)NC(=O)[C@H](CC(C)C)NC(=O)[C@H](CC(=O)O)NC(=O)[C@H](C)NC(=O)[C@@H]1CCCN1C(=O)[C@@H](NC(=O)[C@H](CO)NC(=O)[C@@H](NC(=O)[C@H](CCCNC(=N)N)NC(=O)[C@H](CC(C)C)NC(C)=O)[C@@H](C)CC)C(C)C)C(=O)N[C@@H](CC(N)=O)C(=O)N[C@@H](CCCCN)C(N)=O [SEQ ID NO: 240] (Ac-LRISVPADLWDWINK-NH2)
2,< 0.5 µM,CC[C@H](C)[C@H](NC(=O)[C@@H](NC(=O)[C@@H](NC(=O)[C@H](Cc1c[nH]cn1)NC(=O)[C@@H](NC(C)=O)C(C)C)C(C)C)[C@@H](C)O)C(=O)N1CCC[C@H]1C(=O)N[C@@H](C)C(=O)N[C@@H](CC(=O)O)C(=O)N[C@@H](CC(C)C)C(=O)N[C@@H](Cc1c[nH]c2ccccc12)C(=O)N[C@@H](CCC(=O)O)C(=O)N[C@@H](Cc1ccccc1)C(=O)N[C@H](C(=O)N[C@@H](CCCNC(=N)N)C(=O)N[C@@H](CCCNC(=N)N)C(N)=O)C(C)C [SEQ ID NO: 120] (Ac-VHVTIPADLWEFVRR-NH2)
3,< 0.5 µM,CC[C@H](C)[C@H](NC(=O)[C@H](CCC(N)=O)NC(=O)[C@H](Cc1ccccc1)NC(=O)[C@H](Cc1c[nH]cn1)NC(=O)[C@@H](NC(C)=O)C(C)C)C(=O)N1CCC[C@H]1C(=O)N[C@@H](CCC(N)=O)C(=O)N[C@@H](CC(=O)O)C(=O)N[C@@H](CC(C)C)C(=O)N[C@@H](Cc1ccc(O)cc1)C(=O)N[C@@H](CC(N)=O)C(=O)N[C@@H](Cc1ccccc1)C(=O)N[C@@H](Cc1ccccc1)C(=O)N[C@@H](CCCNC(=N)N)C(=O)N[C@@H](CCCNC(=N)N)C(N)=O [SEQ ID NO: 153] (Ac-VHFQIPQDLYNFFRR-NH2)
4,< 0.5 µM,CC(=O)N[C@H](C(=O)N[C@@H](Cc1c[nH]cn1)C(=O)N[C@@H](Cc1ccccc1)C(=O)N[C@@H](CCC(N)=O)C(=O)N[C@@H](Cc1ccccc1)C(=O)N1CCC[C@H]1C(=O)N[C@@H](CCC(N)=O)C(=O)N[C@@H](CC(=O)O)C(=O)N[C@@H](CC(C)C)C(=O)N[C@@H](Cc1c[nH]c2ccccc12)C(=O)N[C@@H](CCC(=O)O)C(=O)N[C@@H](Cc1c[nH]c2ccccc12)C(=O)N[C@H](C(=O)N[C@@H](CCCNC(=N)N)C(=O)N[C@@H](CCCNC(=N)N)C(N)=O)C(C)C)C(C)C [SEQ ID NO: 150] (Ac-VHFQFPQDLWEWVRR-NH2)
5,< 0.5 µM,CC[C@H](C)[C@H](NC(=O)[C@H](CCC(N)=O)NC(=O)[C@H](Cc1ccccc1)NC(=O)[C@H](Cc1c[nH]cn1)NC(=O)[C@@H](NC(C)=O)C(C)C)C(=O)N1CCC[C@H]1C(=O)N[C@@H](CCC(N)=O)C(=O)N[C@@H](CC(=O)O)C(=O)N[C@@H](Cc1c[nH]c2ccccc12)C(=O)N[C@@H](Cc1c[nH]c2ccccc12)C(=O)N[C@@H](CCC(=O)O)C(=O)N[C@@H](Cc1c[nH]c2ccccc12)C(=O)N[C@H](C(=O)N[C@@H](CCCNC(=N)N)C(=O)N[C@@H](CCCNC(=N)N)C(N)=O)C(C)C [SEQ ID NO: 137] (Ac-VHFQIPQDWWEWVRR-NH2)
6,< 0.5 µM,CC(=O)N[C@H](C(=O)N[C@@H](Cc1c[nH]cn1)C(=O)N[C@@H](Cc1ccccc1)C(=O)N[C@H](C(=O)N[C@@H](Cc1ccccc1)C(=O)N1CCC[C@H]1C(=O)N[C@@H](CCC(N)=O)C(=O)N[C@@H](CC(=O)O)C(=O)N[C@@H](CC(C)C)C(=O)N[C@@H](Cc1c[nH]c2ccccc12)C(=O)N[C@@H](CC(N)=O)C(=O)N[C@@H](Cc1c[nH]c2ccccc12)C(=O)N[C@H](C(=O)N[C@@H](CCCNC(=N)N)C(=O)N[C@@H](CCCNC(=N)N)C(N)=O)C(C)C)[C@@H](C)O)C(C)C [SEQ ID NO: 127] (Ac-VHFTFPQDLWNWVRR-NH2)
7,< 0.5 µM,CC[C@H](C)[C@H](NC(=O)[C@@H](NC(=O)[C@H](Cc1ccccc1)NC(=O)[C@H](Cc1c[nH]cn1)NC(=O)[C@@H](NC(C)=O)C(C)C)[C@@H](C)O)C(=O)N1CCC[C@H]1C(=O)N[C@@H](CCC(N)=O)C(=O)N[C@@H](CC(=O)O)C(=O)N[C@@H](CC(C)C)C(=O)N[C@@H](Cc1ccc(O)cc1)C(=O)N[C@@H](CC(N)=O)C(=O)N[C@@H](Cc1c[nH]c2ccccc12)C(=O)N[C@@H](CCCNC(=N)N)C(=O)N[C@@H](CCCNC(=N)N)C(N)=O [SEQ ID NO: 151] (Ac-VHFTIPQDLYNWRR-NH2)
8,< 0.5 µM,CC[C@H](C)[C@H](NC(=O)[C@@H](NC(=O)[C@@H](NC(=O)[C@H](Cc1c[nH]cn1)NC(=O)[C@@H](NC(C)=O)C(C)C)C(C)C)[C@@H](C)O)C(=O)N1CCC[C@H]1C(=O)N[C@@H](C)C(=O)N[C@@H](CC(=O)O)C(=O)N[C@@H](Cc1ccccc1)C(=O)N[C@@H](Cc1c[nH]c2ccccc12)C(=O)N[C@@H](CCC(=O)O)C(=O)N[C@@H](Cc1c[nH]c2ccccc12)C(=O)N[C@H](C(=O)N[C@@H](CCCNC(=N)N)C(=O)N[C@@H](CCCNC(=N)N)C(N)=O)C(C)C [SEQ ID NO: 117] (Ac-VHVTIPADFWEWVRR-NH2)
